Data as given in patent EP1698638A1, “Lipopeptides having pharmaceutical activity” (Technische Universität Berlin, priority 2005, dated 2006).

Key:
[1] = test system: Jurkat ATCC-TIB-152 (human acute T cell leukemia) celline; assay: cytotoxicity, cell viability by XTT test (1st test); assay type: cell-based
Description: Furthermore, the compounds according to the present invention were tested in relation to their activity against cancer cell lines. They were tested for cytotoxicity by determining the IC50-values. The IC50-value was determined by the procedure discrided in Filip P, Anke T, Sterner O, 5-(2'-oxoheptadecyl)-resorcinol and 5-(2'-oxononadecyl)-resorcinol, cytotoxic metabolites from a wood-inhabiting basidiomycete, ZNaturforsch [C]. 2002 Nov-Dec;57(11-12):1004-8. Sample preparation was carried out as follows: 1 st test The compound (hassalidin B) (20 µg) was dissolved in 4 µl DMSO and 16 µl H2O to give a concentration of 1 mg/ml. 1 µl of this solution and 0,5 µl of this solution were used to inoculate 200 µl culture medium each, thus making up a concentration of hassallidin B of 5µg/ml and 2,5 µ/ml, respectively. Thereafter 68 µl H2O were added to 17 µl of the solution of 1 mg/ml hassalidin B to give a concentration of 200 µg/ml, and again 1 µl and 0,5 µl of this solution were used to inoculate 200 µl of culture medium each thus making up a final concentration of hassallidin B of 1 µg/ml and 0,5 µg/ml, respectively. […] Cell viability of cell growing was measured by the XTT test (Boehringer, Mannheim/Roche) as discribed in the product information. […]

ATCC 6258 (QC) = assay: microdilution assay (NCCLS), inhibitory concentration (IC); assay type: cell-based, Candida krusei; settings: Table 4 series, RPMI-1640 medium
[2] = test system: Cryptococcus neoformas RKI 18/05; assay: as above; assay type: cell-based; settings: RPMI-1640 medium
Description: More specifically, a determination of inhibitory concentration (IC) of hassallidin A and hassallidin B for various fungi, Candida species and Candida strains were performed with different media (RPMI-1640 or SAB or AM3) in a microdilution assay by following the guidelines in NCCLS documents M^38-P^25 and M27-A2^26 carried out as follows Each substance was dissolved with 100% dimethyl sulfoxide (Serva, Heidelberg, Germany) to give a stock solution of 3.2 mg/ml followed by nine log2 dilution steps with the solvent. This served as a 100-fold concentrated dilution series ranging from 1.6 mg/ml to 0.003 mg/ml of the test substance. The final concentration of the test substance was 16 µg/ml to 0.031 µg/ml.
Therefore the 100-fold concentrated dilution series (with 100% DMSO) was diluted to the final concentration by two dilution steps: • (1) Each concentration of the 100-fold concentrated substance was diluted with test medium for 1:50 (for ex.: adding of 13 µl of the test substance to 637 µl test medium). • (2) 100 µl of each 1:50 diluted concentration was filled in a row of wells of a microtitre plate. One well was without the substance but with the 1:50 diluted solvent serving as growth control.
A further 1:2 dilution of the antifungal was made by the inoculation of each well with 100 µl of the test organism, which was suspended in the test medium. The remaining well of the row was used for sterility control of the medium. The inoculum was strictly prepared according the NCCLS^25 guidelines, resulting in […] for Candida-species and Cryptococcus neoformans. For hyphomycetes CFU's were tenfold higher (see NCCLS). ^26 The growth of the hyphomycetes respectively the inhibition was measured by visual reading with the help of a reading mirror; scoring was done according to NCCLS :^26 score 0 corresponds to a optical clear well or an IC95 or higher, score 1 corresponds to an inhibition of 80 percent (IC80) and the score 2 of the NCCLS definition corresponds to the IC50 values in the tables. […] The percent inhibition IC50, IC80 or IC95 (corresponding the scores of 2, 1 and 0) was calculated by the following formula: (100−[(ODof the well−ODof the medium)] × 100)/((ODof the growth control−ODof the medium).) [formula] Table 3. Test series for determining IC values of hassallidin A and B in different media using Candida albicans and Candida krusei. The IC values were measured after 24 h and 48 h at 30 °C.

Substance | IC50-value [1] | IC80 (ATCC 6258 (QC); 35°C/24h) | IC95 (ATCC 6258 (QC); 35°C/24h) | IC80 (ATCC 6258 (QC); 35°C/48h) | IC50 ([2]; 35°C/24h, visual) | IC80 ([2]; 35°C/24h, visual) | IC95 ([2]; 35°C/24h, visual) | IC50 ([2]; 35°C/48h) | IC80 ([2]; 35°C/48h) | IC95 ([2]; 35°C/48h)
hassallidin B | 0.2 µg/mL |  |  |  |  |  |  |  |  | 
hassallidin A |  | 8 µg/mL | 8 µg/mL | 16 µg/mL | 4 (visual) µg/mL | 4 (visual) µg/mL | 4 (visual) µg/mL | 4 µg/mL | 4 µg/mL | 4 µg/mL
